Results on two compounds are retold here after paper PMC8408276, “Distinct neuropeptide-receptor modules regulate a sex-specific behavioral response to a pheromone” (Communications Biology, 2021).

For assay [1], the system named is C. elegans. Nature of the assay: Single worm attraction assay (SWAA). The class given is in vivo. As to the method:
We adapted the spot retention assay (Supplementary Fig. 1)[28],[38] to allow for better characterization of individual worm behavior and robust interrogation of attraction to small molecules. We first compared the attractiveness of 1 µM ascr#8 (Fig. 1a, inset) across multiple strains of C. elegans (the wild-type N2 strain, the high incidence of male him-5 and him-8 strains, and the chemosensory cilia defective osm-3), using our novel behavioral assay, the single worm attraction assay (SWAA) (Fig. 1a). In this assay, individual animals are placed directly into the spot of the ascaroside cue (A) while simultaneously removing any potential of male–male contact. A spatial control is included throughout the assay plate to allow us to investigate any innate differences in the number of visits to the well center, or the time spent therein, of which we have only found one strain to date with differences in male dwell time (Fig. 1a). Likewise, a vehicle control (V) is also included, to account of any changes in dwell time that are driven by the components of the vehicle. The outer forty wells of a 48-well suspension culture plate (Olympus Plastics, Cat #: 25-103) were seeded with 200 µL of standard NGM agar. To prepare the plates for the assay, they were acclimated to room temperature, at which point each well was seeded with 65 µL of OP50 E. coli. […] A single worm was placed in each of the 10 wells to be assayed, and the plate was transferred to a light source and camera and recorded for 15 m. […] Raw dwell time values were calculated by subtracting the time a worm exited the cue (center of the well in spatial controls), from the time it entered, as in the SRA[14]. This was determined per visit, and the average dwell time was calculated for each animal in the quadrant. Averages of the four-quadrant means were determined per plate, and a minimum of five plates were assayed per strain/condition. The mean raw dwell time across five plates was calculated and used for statistical analyses and graphical display. […] The number of visits per-worm was calculated, and the average visit count determined per quadrant, and per plate. The average visit count across five plates was calculated and used for statistical analyses and graphical display. An “attractive visit” was first determined for each plate as any visit greater than two standard deviations above the mean dwell time within the vehicle control for that plate. Any individual visit meeting this threshold was scored as a “1”, and any below was scored a “0”. The percent visits per-worm that were attractive was determined, and the average of each quadrant taken. […] The average percent of attractive visits across five plates was calculated and used for statistical analyses and graphical display. […]

In assay [2] the test system is C. elegans. Briefly: Drop avoidance assay. The class given is in vivo. Particulars: Fig. 2c. As to the method: Because the defect in male response to ascr#8 was significant, and the SWAA was designed to detect attractive behaviors, we sought to determine if flp-3 loss-of-function (lof) animals were in fact avoiding ascr#8. Using a previously described drop avoidance assay[11],[41], we exposed forward moving animals to a drop of either vehicle control or ascr#8 and scored the avoidance index. […] The hermaphroditic behavior was unaffected by the loss of flp-3. (Fig. 2f). […] Assays were performed as described previously[4],[11],[41]. Fifty to sixty L4 worms were segregated by sex and stored at 20 °C for 5 h to overnight to be assayed as young adults. One to four hours prior to the assay, the lids of unseeded plates were tilted to allow any excess moisture to evaporate off the plates. At the time of the assay, 10 or more animals were transferred onto each of the dried, unseeded plates. A drop of either water or 1 µM ascr#8 was placed on the tail of forward moving animals, and their response was scored as either an avoidance response, or no response. The total number of avoidances was divided by the total number of drops to generate an avoidance index for that plate. This was repeated for at least 10 plates over at least three different days. Statistical comparisons within each strain were made by paired t-test against a significance level set at 0.05. […]

For assay [3], the system named is C. elegans. Particulars: males no longer attracted to higher concentrations; cited from earlier work. From the text: Here, we investigate the neuronal mechanisms governing the behavioral attractive response of male C. elegans to ascr#8[28].
Another assay has as its target T1, NPR-10B (Caenorhabditis elegans, UniProt Q6EUU1).
T1 sequence (Q6EUU1 1-362): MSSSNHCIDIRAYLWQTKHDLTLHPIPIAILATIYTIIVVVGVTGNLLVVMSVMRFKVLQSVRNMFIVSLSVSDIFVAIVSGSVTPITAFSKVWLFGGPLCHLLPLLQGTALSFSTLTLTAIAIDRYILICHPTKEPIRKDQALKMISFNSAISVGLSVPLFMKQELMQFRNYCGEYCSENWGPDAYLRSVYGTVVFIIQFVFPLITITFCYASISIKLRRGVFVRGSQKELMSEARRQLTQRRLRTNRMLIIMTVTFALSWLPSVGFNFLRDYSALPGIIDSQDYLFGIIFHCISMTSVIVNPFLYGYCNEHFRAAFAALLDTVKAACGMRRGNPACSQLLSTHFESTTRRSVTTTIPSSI
Briefly: In vitro GPCR activation assay (CHO-K1, aequorin, Gα16), NPR-10B. The class given is cell-based, C. elegans. The conditions noted are these: CHO-K1 aequorin/Gα16 calcium response. As to the method: (§1) The GPCR activation assay was performed as previously described[66],[74]. Briefly, npr-10 and frpr-16 cDNAs were cloned into the pcDNA3.1 TOPO expression vector (Thermo Fisher Scientific). A CHO-K1 cell line (PerkinElmer, ES-000-A24) stably expressing apo-aequorin targeted to the mitochondria (mtAEQ) and human Gα16 was transiently transfected with the receptor cDNA construct or the empty pcDNA3.1 vector using Lipofectamine LTX and Plus reagent (Thermo Fisher Scientific). Cells were shifted to 28 °C one day later and allowed to incubate for 24 h. On the day of the assay, cells were collected in BSA medium (DMEM/Ham’s F12 with 15 mM HEPES, without phenol red, 0.1% BSA) and loaded with […] coelenterazine h (Thermo Fisher Scientific) for 4 h at room temperature. The incubated cells were then added to synthetic peptides dissolved in DMEM/BSA, and luminescence was measured for 30 s at 496 nm using a Mithras LB940 (Berthold Technologies) or MicroBeta LumiJet luminometer (PerkinElmer). After 30 s of readout, 0.1% triton X-100 was added to lyse the cells, resulting in a maximal calcium response that was measured for 10 s. After initial screening, concentration-response curves were constructed for HPLC-purified FLP-3 peptides by subjecting the transfected cells to each peptide in a concentration range from 1 pM to 10 µM. Cells transfected with an empty vector were used as a negative control. Assays were performed in triplicate on at least two independent days. Concentration-response curves were fitted using Prism v. 7 (nonlinear regression analysis with a sigmoidal concentration-response equation).

The subject of a further assay is NPR-10A. Briefly: In vitro GPCR activation assay (CHO-K1, aequorin, Gα16), NPR-10A. The class given is cell-based, C. elegans. Particulars: CHO-K1 aequorin/Gα16 calcium response; Supplementary Fig. 10a. As to the method:
This peptide contains an R-to-K mutation within the C-terminal motif, which may explain the lack of receptor activation.
as §1, with “After initial screening, concentration-response curves were constructed for HPLC-purified FLP-3 peptides by subjecting the transfected cells to each peptide in a concentration range from 1 pM to 10 µM. Cells transfected with an empty vector were used as a negative control. Assays were performed in triplicate on at least two independent days. Concentration-response curves were fitted using Prism v. 7 (nonlinear regression analysis with a sigmoidal concentration-response equation).” left out

A further assay has as its target T2, FRPR-16 (Caenorhabditis elegans, UniProt Q21957).
T2 sequence (Q21957 1-340): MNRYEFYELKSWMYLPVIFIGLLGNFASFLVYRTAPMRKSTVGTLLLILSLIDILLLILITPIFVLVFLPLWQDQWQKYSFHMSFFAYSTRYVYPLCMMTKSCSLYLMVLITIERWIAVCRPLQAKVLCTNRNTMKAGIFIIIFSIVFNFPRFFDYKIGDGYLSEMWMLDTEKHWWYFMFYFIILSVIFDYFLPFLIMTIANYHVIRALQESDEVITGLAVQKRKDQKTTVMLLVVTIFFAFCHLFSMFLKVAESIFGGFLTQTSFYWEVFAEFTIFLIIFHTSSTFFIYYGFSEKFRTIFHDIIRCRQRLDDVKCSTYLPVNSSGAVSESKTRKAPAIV
Nature of the assay: In vitro GPCR activation assay (CHO-K1, aequorin, Gα16), FRPR-16. Particulars: CHO-K1 aequorin/Gα16 calcium response. The class given is cell-based, C. elegans. As to the method: as §1

The test system of assay [4] is flp-3 lof C. elegans males. Briefly: Peptide rescue-by-feeding, avoidance assay. The class given is in vivo. The conditions noted are these: flp-3 lof males reared on bacteria expressing the peptide; 1 µM ascr#8 drop. An excerpt:
To identify which FLP-3 peptides are required for male avoidance of ascr#8, we adopted a peptide feeding approach, similar to RNAi feeding, as initially described previously[37],[59] (Fig. 6a). Using Gateway Cloning technology, we first inserted FLP-3 peptide coding sequences into a bacterial expression vector. As a control, we first tested the FLP-3 peptides that are still encoded in the ok3625 allele which are insufficient to drive the proper ascr#8 response in vivo: FLP-3-1 (SPLGTMRFamide) and FLP-3-4 (NPLGTMRFamide) (Supplementary Fig. 4). We then reared flp-3 lof animals on lawns of bacteria expressing the rescue constructs, and their progeny were assayed for avoidance (Fig. 6b–d, Supplementary Fig. 12).
DNA oligos containing the sequence for the peptides of interest were generated using Integrated DNA Technologies’ Ultramer synthesis service. The DNA sequence encoding the peptide sequence was flanked with sequences encoding EGL-3 cut sites (MRFGKR upstream, and KRK-STOP) downstream. These sites were then flanked with Gateway Cloning sites attB1 and attB2. Annealed oligos were then used to perform a BP reaction with pDONR p1-p2 to generate the pENTRY clones. […]
Assays were performed as described previously[4],[11],[41]. […] A drop of either water or 1 µM ascr#8 was placed on the tail of forward moving animals, and their response was scored as either an avoidance response, or no response. […]

Entries after “also recorded” stand apart in the source; their conditions may differ.

Take `C[C@H](CC/C=C/C(=O)Nc1ccc(C(=O)O)cc1)O[C@@H]1O[C@@H](C)[C@H](O)C[C@H]1O` [ascr#8]: the “Attractive visits to the cue” value with C. elegans [1] (1 µM ascr#8, males of wild-type strains, Supplementary Fig. 2b) is on record as 30–45%. Moreover, in the assay on C. elegans [1] (hermaphrodites from all strains), the “Time spent in ascr#8 compared to the vehicle, in words” value is “significantly less time”. For the same compound, the “Time spent within ascr#8 spot compared to the vehicle control, in words” value in the assay with C. elegans [1] (males, all wild-type and him strains, Fig. 1b, c) is given as “significant increase”. In addition, the “Avoidance of the cue, in words” value with C. elegans [2] (flp-3 lof males) was “strongly avoided”; in the assay on C. elegans [2] (wild-type males) it was “did not avoid”. Besides, the “Concentration preferred by males (behavioral tuning curve)” value in the assay on C. elegans [3] is around 1 µM.
For “STVDSSEPVIRDQ [FLP-3-10, non-RFamide peptide encoded by the flp-3 gene]”, at NPR-10B, the “Activation of NPR-10 (NPR-10B), in words” value is “activated no receptors; also recorded: failed to activate; also recorded: did not activate either receptor”. The “Activation of NPR-10A, in words” value in the assay on NPR-10A was “activated no receptors”. Moreover, the “Activation of FRPR-16, in words” value at FRPR-16 is given as “activated no receptors; also recorded: did not activate either receptor”. The “Rescue of the ascr#8 avoidance phenotype, in words” value in assay [4] is on record as “unable to rescue the avoidance phenotype”.
